Assay results taken from US8754040B2, “Cyclic peptide compound, method for producing same, anti-infective agent, antibiotic-containing fraction, antibiotic, method for producing antibiotic, antibiotic-producing microorganism, and antibiotic produced by same” (priority 2010, dated 2014).
Values after ≈ are worked out from the molar mass of the structure shown. Positions of bridges follow the written chain, without caps; N, C: chain ends. Non-standard residues stand in square brackets, D forms with d. Residues, ends and D or L forms follow the SMILES beside them. *: point of attachment. Hexanoyl(3-OH,5-Me) = CC(C)CC(O)CC(=O)*; dNMeF = CN[C@H](Cc1ccccc1)C(=O)O

Experiments:
[1] = tested on: Enterococcus faecalis (EF1)
Description: (§1) Antibacterial activity of the antibiotic-substance-containing fraction at each fractionation stage from a culture produced from RH2180-5 and that of the antibiotic substance obtained therefrom by separation and purification thereof can be evaluated by MIC. […] For example, it is done with a broth microdilution method based on CLSI (formerly NCCLS: National Committee for Clinical Laboratory Standards).
(§2) Antibacterial spectrum of the RH2180-5 Peak 5 Substance to various bacteria including MRSA and VRE was studied. In addition, influence of chemical resistance was also studied. For study of the latter, Staphylococcus aureus and Enterococcus faecalis were selected, wherein measurement of MIC value of each peak substance was made by a broth microdilution method based on CLSI (formerly NCCLS: National Committee for Clinical Laboratory Standards) as to Staphylococcus aureus not showing resistance to a chemical (hereinafter abbreviated as “MSSA 1”) and two kinds of MRSA showing resistance to many chemicals including methicillin (MRSA 3 and MRSA 4; see Table 3 for resistive chemicals) for Staphylococcus aureus; and as to Enterococcus faecalis not showing resistance to a chemical (hereinafter abbreviated as “EF 1”) and showing resistance to vancomycin (hereinafter abbreviated as “VRE”) for Enterococcus faecalis.
(§3) Test microorganisms of Staphylococcus aureus and Enterococcus faecalis, the same as Test Example 1, were selected; and measurement of MIC value of each peak substance was made by a broth microdilution method based on CLSI (formerly NCCLS: National Committee for Clinical Laboratory Standards) as to MSSA 1 and EF 1, and MRSA 3, MRSA 4, and VRE, the same as Test Example 1.
(§4) Antibacterial spectrum of the foregoing RH2180-5 Peak 5 Substance to various microorganisms including MRSA and VRE was studied. Each MIC value for the case added with 10% blood serum and for the case not added with the same was measured by a broth microdilution method based on CLSI (formerly NCCLS: National Committee for Clinical Laboratory Standards).

[2] = tested on: Enterococcus faecalis (VRE)
Description: as §1, §2, §3, §4

[3] = tested on: Staphylococcus aureus (MRSA3)
Description: as §1, §2, §3, §4

[4] = tested on: Staphylococcus aureus (MRSA4)
Description: as §1, §2, §3, §4

[5] = tested on: Staphylococcus aureus (MSSA1); conditions: MSSA1
Description: as §1, §2, §3, §4

Staphylococcus aureus [6] = assay: silkworm Staphylococcus aureus infection model (therapeutic effect); assay type: in vivo, silkworm (larva of Bombyx mori); conditions: purification stages, Table 2
Description: In the present invention too, a first screening to narrow down effective strains from several tens of thousands of extraordinary large numbers of strains may be done by any method as far as the antibacterial activity can be evaluated with the said method; and thus, for example, by referring to MIC, test bodies showing the antibacterial activity to Staphylococcus aureus in culture supernatant of each strain may be picked up. This is because strains not showing the antibacterial activity at all are not in the scope of examination. Any method capable of evaluating the antibacterial activity may be used; but a method with which a strain recognized to show, with referring to MIC, the antibacterial activity to Staphylococcus aureus in culture supernatant of various test strains is picked up is preferable. […]
Strains recognized to show the therapeutic effect in the silkworm Staphylococcus aureus infection model are further subjected to various separation and purification treatments wherein the therapeutic effect is evaluated in each operation by using the silkworm Staphylococcus aureus infection model. […]

Staphylococcus aureus [7] = assay type: cell-based
Description: A soil taken from various places was suspended in a physiological saline solution, and then the supernatant thereof was applied on a GA medium and a HV medium; and after incubation at 30° C., grown bacteria was separated and then cultured in an YME medium, a SGM medium, or a CDY medium at 30° C. for 5 days. Equal amount of acetone was added thereinto; and after they were suspended and centrifugally separated, the resulting supernatant was evaporated. The residue thus resulted was diluted with a physiological saline solution, and then the antibacterial activity thereof to Staphylococcus aureus was evaluated by MIC with a broth microdilution method. As a result, antibacterial activity was found in culture supernatant of 3487 strains out of 14346 strains.

[8] = tested on: Smith strain of Staphylococcus aureus; assay: mouse Staphylococcus aureus infection model (therapeutic effect); assay type: in vivo, mouse (ICR female); conditions: Staphylococcus aureus, ip
Description: Smith strain of Staphylococcus aureus was suspended in 7% mucin+0.2 mM ferric ammonium citrate, and 6.2×10^6 (20×LD50) thereof was administered into the peritoneal cavity of 5 mice per group (ICR female of four weeks of age). Each drug was injected hypodermically 2 hours after administration of the bacterium by the method shown below.
Similarly, ED50 of vancomycin to the mouse model used this time was studied. […] Here, ED50 values were obtained by the probit method.

Staphylococcus aureus [9] = assay: survived cell numbers (CFU) of Staphylococcus aureus after drug addition; assay type: cell-based
Description: To CA-Mueller Hinton Broth medium were taken 1.8×10^8 Staphylococcus aureus, and then the foregoing RH2180-5 Peak 5 Substance (25 μg/mL), vancomycin (VM, 5 μg/mL), and gentamicin (GM, 2.5 μg/mL) were added thereinto; and then, survived cell numbers after 15 minutes, 30 minutes, 60 minutes, and 120 minutes were obtained as CFU (colony forming unit/mL).

| Compound | MIC [1] [µg/mL] | MIC [2] [µg/mL] | MIC [3] [µg/mL] | MIC [4] [µg/mL] | MIC [5] [µg/mL] | other results |
| --- | --- | --- | --- | --- | --- | --- |
| CC[C@H](C)[C@@H]1NC(=O)[C@@H](Cc2c[nH]c3ccccc23)NC(=O)[C@@H](CCC(N)=O)NC(=O)[C@H](CCC(=O)O)NC(=O)[C@@H](CCCNC(=N)N)NC(=O)[C@H](CC(C)C)NC(=O)[C@@H](Cc2ccccc2)NC(=O)CNC(=O)[C@H](CO)NC(=O)[C@@H](CCCNC(=N)N)NC(=O)[C@@H](NC(=O)CC(O)CCCC(C)C)[C@@H](C)OC(=O)[C@H]([C@@H](C)O)NC1=O (single isomer, unassigned) [Peak P3] | 50 (≈ 30.6 µM) | 50 (≈ 30.6 µM) | 25 (≈ 15.3 µM) | 25 (≈ 15.3 µM) | 25 (≈ 15.3 µM) | – |
| CC[C@H](C)[C@@H]1NC(=O)[C@@H](Cc2c[nH]c3ccccc23)NC(=O)[C@@H](CCC(N)=O)NC(=O)[C@H](CCC(=O)O)NC(=O)[C@@H](CCCNC(=N)N)NC(=O)[C@H](CC(C)C)NC(=O)[C@@H](Cc2ccccc2)NC(=O)CNC(=O)[C@H](CO)NC(=O)[C@@H](CCCNC(=N)N)NC(=O)[C@@H](NC(=O)CC(O)CCCC(C)C)[C@@H](C)OC(=O)[C@H]([C@@H](C)O)NC1=O (single isomer, unassigned) [Peak P4] | 50 (≈ 30.6 µM) | 25 (≈ 15.3 µM) | 25.0 (≈ 15.3 µM) | 12.5 (≈ 7.66 µM) | 12.5 (≈ 7.66 µM) | – |
| CC[C@H](C)[C@@H]1NC(=O)[C@@H](Cc2c[nH]c3ccccc23)NC(=O)[C@@H](CCC(N)=O)NC(=O)[C@H](CCC(=O)O)NC(=O)[C@@H](CCCNC(=N)N)NC(=O)[C@H](CC(C)C)NC(=O)[C@@H](Cc2ccccc2)N(C)C(=O)CNC(=O)[C@H](CO)NC(=O)[C@@H](CCCNC(=N)N)NC(=O)[C@@H](NC(=O)CC(O)CCC(C)C)[C@@H](C)OC(=O)[C@H]([C@@H](C)O)NC1=O (single isomer, unassigned) [Peak P7] | 50 (≈ 30.6 µM) | 25 (≈ 15.3 µM) | 12.5 (≈ 7.66 µM) | 12.5 (≈ 7.66 µM) | 12.5 (≈ 7.66 µM) | – |
| CC[C@H](C)[C@@H]1NC(=O)[C@@H](Cc2c[nH]c3ccccc23)NC(=O)[C@@H](CCC(N)=O)NC(=O)[C@H](CCC(=O)O)NC(=O)[C@@H](CCCNC(=N)N)NC(=O)[C@H](CC(C)C)NC(=O)[C@@H](Cc2ccccc2)N(C)C(=O)CNC(=O)[C@H](CO)NC(=O)[C@@H](CCCNC(=N)N)NC(=O)[C@@H](NC(=O)CC(O)CCCC(C)C)[C@@H](C)OC(=O)[C@H]([C@@H](C)O)NC1=O (single isomer, unassigned) [Peak P8] | 50 (≈ 30.4 µM) | 25 (≈ 15.2 µM) | 12.5 (≈ 7.59 µM) | 12.5 (≈ 7.59 µM) | 12.5 (≈ 7.59 µM) | – |
| CC[C@H](C)[C@@H]1NC(=O)[C@@H](Cc2c[nH]c3ccccc23)NC(=O)[C@@H](CCC(N)=O)NC(=O)[C@H](CCC(=O)O)NC(=O)[C@@H](CCCNC(=N)N)NC(=O)[C@H](CC(C)C)NC(=O)[C@@H](Cc2ccccc2)N(C)C(=O)CNC(=O)[C@H](CO)NC(=O)[C@@H](CCCNC(=N)N)NC(=O)[C@@H](NC(=O)CC(O)CCCC(C)C)[C@@H](C)OC(=O)[C@H]([C@@H](C)O)NC1=O (single isomer, unassigned) [Peak P9] | 12.5 (≈ 7.59 µM) | 12.5 (≈ 7.59 µM) | – | – | – | ED50 (Staphylococcus aureus [6]): 0.3 μg/g-larva; MIC (Staphylococcus aureus [7]): 5 µg/mL (≈ 3.04 µM) |
| CC(C)CC(O)CC(=O)N[C@@H]1C(=O)N[C@H](CCCNC(=N)N)C(=O)N[C@@H](CO)C(=O)NCC(=O)N(C)[C@H](Cc2ccccc2)C(=O)N[C@@H](CC(C)C)C(=O)N[C@H](CCCNC(=N)N)C(=O)N[C@@H](CCC(=O)O)C(=O)N[C@H](CCC(N)=O)C(=O)N[C@H](Cc2c[nH]c3ccccc23)C(=O)N[C@@H](C(C)C)C(=O)N[C@@H]([C@@H](C)O)C(=O)O[C@@H]1C (stereo partly drawn) [Peak P2] ({Hexanoyl(3-OH,5-Me)}-T[dR]SG[dNMeF]L[dR]E[dQ][dW]VT; ester 1-C) | 50 (≈ 31.2 µM) | 50 (≈ 31.2 µM) | 12.5 (≈ 7.79 µM) | 6.3 (≈ 3.93 µM) | 12.5 (≈ 7.79 µM) | – |
| CN[C@H](CC(C)C)C(=O)N[C@H]1C(=O)N[C@@H](CC(N)=O)C(=O)N[C@H]2C(=O)N[C@H]3C(=O)N[C@H](C(=O)N[C@H](C(=O)O)c4cc(O)cc(O)c4-c4cc3ccc4O)[C@H](O)c3ccc(c(Cl)c3)Oc3cc2cc(c3O[C@@H]2O[C@H](CO)[C@@H](O)[C@H](O)[C@H]2O[C@H]2C[C@](C)(N)[C@H](O)[C@H](C)O2)Oc2ccc(cc2Cl)[C@H]1O [Vancomycin] | – | – | – | – | – | ED50 [8]: 1.6 mg/kg; CFU/ml of S. aureus (Staphylococcus aureus [9]; 5 μg/ml, 15 minutes): 8.5 × 10^7 CFU/ml; CFU/ml of S. aureus (Staphylococcus aureus [9]; 5 μg/ml, 30 minutes): 4.9 × 10^7 CFU/ml; CFU/ml of S. aureus (Staphylococcus aureus [9]; 5 μg/ml, 60 minutes): 6.8 × 10^7 CFU/ml; CFU/ml of S. aureus (Staphylococcus aureus [9]; 5 μg/ml, 120 minutes): 3.4 × 10^7 CFU/ml |
| Gentamicin [GM] | – | – | – | – | – | CFU/ml of S. aureus (Staphylococcus aureus [9]; 2.5 μg/ml, 15 minutes): 2.6 × 10^7 CFU/ml; CFU/ml of S. aureus (Staphylococcus aureus [9]; 2.5 μg/ml, 30 minutes): 7.6 × 10^5 CFU/ml; CFU/ml of S. aureus (Staphylococcus aureus [9]; 2.5 μg/ml, 60 minutes): 1.6 × 10^5 CFU/ml; CFU/ml of S. aureus (Staphylococcus aureus [9]; 2.5 μg/ml, 120 minutes): 4.0 × 10^5 CFU/ml |
